EP2913057B1, “Cancer peptide therapeutics” (Indiana University Research and Technology Corporation, priority 2008, dated 2010)
Entries after “also recorded” stand apart in the source; their conditions may differ. Residues, ends and D or L forms follow the SMILES beside them.

What was measured:
MCF 7 (breast cancer) = experiment: Cytotoxic effect in malignant breast cells, cell death by flow cytometry; assay type: cell-based; parameters: dose or concentration left out as unconfirmed; settings: 48 hours
Protocol: The R9-caPeptide was evaluated for cytotoxic effects in non-malignant (MCF 10A) and malignant (MCF 7) breast cells (Table 6). The cells were treated with 50 mM R9-caPeptide for 48 hours and the extent of cell death was evaluated by flow cytometry. […] The significant level of cytotoxicity in breast cancer cells is likely due to enhanced binding interaction of caPeptide with specific DNA repair proteins in these cells, as indicated for example by the observed preferential binding of caPCNA for XPG protein, leading to an inhibition of DNA repair in these cells, and ultimately cell death.

U937 cells [1] = experiment: Cytotoxicity (apoptosis / cell death) of R9-linked caPCNA peptides by flow cytometry; assay type: cell-based; settings: 24 hours; for % cancer cell death: 30mM of peptide, flow cytometry
Protocol: First, it was tested whether or not the R9 sequence alone had any cytotoxic effect in U937 cells. The U937 cells were treated with up to 100mM of the R9 sequence for 24 hours.
Once it was established that the R9 sequence promoted cellular uptake of the peptide, increasing amounts of R9-caPep were added to U937 cells to determine if the peptide's uptake would have any cytotoxic effect.
To verify that the cytotoxicity of the R9-caPep was due to the PCNA peptide sequence itself, a scrambled peptide using the same eight amino acids, R9-Scrambled, was prepared (Table 3).
The cancer associated epitope of PCNA is also part of the flexible IDCL region of PCNA. This region of PCNA is considered to have a disordered structure. Disordered regions in proteins are usually associated with protein-to-protein interaction sites. […] To determine which amino acids in the R9-caPep sequence are necessary for binding of the peptide to these proteins, peptide constructs were generated that mutated each aminoacid individually to an alanine (Table 3). Each alanine mutant peptide of caPCNA was used to treat U937 cells for 24 hours. An amino acid that is important to protein binding would presumably show decreased cell cytotoxicity when it is substituted with an alanine. Those amino acids which are not critical for binding could be anticipated to show a cytotoxic level similar to that of the unsubstituted peptide. For a comparison of the potential cytotoxic effect of each of the alanine substituted R9-linked caPeptides, U937 cells were treated with 30mM of peptide. […] It was observed that peptides containing an alanine substituted at position aa126 or aa133 show little cytotoxic activity and therefore were likely important for the peptide's activity.

U937 cells [2] = experiment: cells; settings: Homo sapiens, U-937, read-out: cell death

| Molecule | % cancer cell death (U937 cells [1]) [%] | also measured |
| --- | --- | --- |
| CC[C@H](C)[C@H](NC(=O)CNC(=O)[C@H](CC(C)C)NC(=O)[C@H](CS)NC(=O)[C@H](CS)NC(=O)[C@@H](CCCNC(=N)N)NC(=O)[C@@H](CCCNC(=N)N)NC(=O)[C@@H](CCCNC(=N)N)NC(=O)[C@@H](CCCNC(=N)N)NC(=O)[C@@H](CCCNC(=N)N)NC(=O)[C@@H](CCCNC(=N)N)NC(=O)[C@@H](CCCNC(=N)N)NC(=O)[C@@H](CCCNC(=N)N)NC(=O)[C@H](N)CCCNC(=N)N)C(=O)N1CCC[C@H]1C(=O)N[C@@H](CCC(=O)O)C(=O)N[C@@H](CCC(N)=O)C(=O)N[C@@H](CCC(=O)O)C(=O)N[C@@H](Cc1ccc(O)cc1)C(=O)O [R9-caPep] | – | cytotoxicity for malignant breast cells (MCF7) relative to non-malignant breast cells (MCF10A) (MCF 7 (breast cancer)): approximately five times more cytotoxic |
| CC[C@H](C)[C@H](NC(=O)CNC(=O)[C@@H](N)CC(C)C)C(=O)N1CCC[C@H]1C(=O)N[C@@H](CCC(=O)O)C(=O)N[C@@H](CCC(N)=O)C(=O)N[C@@H](CCC(=O)O)C(=O)N[C@@H](Cc1ccc(O)cc1)C(=O)O [caPeptide] (H-LGIPEQEY-OH) | – | cytotoxic activity (apoptosis) (U937 cells [1]; up to 200mM of caPeptide): did not have any cytotoxic activity; also recorded: no increase in apoptosis was detected |
| COc1cccc2c1C(=O)c1c(O)c3c(c(O)c1C2=O)C[C@@](O)(C(=O)CO)C[C@@H]3O[C@H]1C[C@H](N)[C@H](O)[C@H](C)O1 [doxorubicin] | – | cytotoxicity at 0.1 µM (U937 cells [2]): 30% |
| RRRRRRRRR [R9, reference compound] | – | cytotoxic effect (apoptosis) (U937 cells [1]; up to 100mM of the R9 sequence): did not promote apoptosis; also recorded: did not cause an increase apoptosis |
| RRRRRRRRRCCAGIPEQEY [A1-sub. peptide, R9-linked caPCNA peptide, alanine at aa126] | 8±9 | – |
| RRRRRRRRRCCLAIPEQEY [A2-sub. peptide, R9-linked caPCNA peptide, alanine at aa127] | 47±13 | – |
| RRRRRRRRRCCLGAPEQEY [A3-sub. peptide, R9-linked caPCNA peptide, alanine at aa128] | 21±12 | – |
| RRRRRRRRRCCLGIAEQEY [A4-sub. peptide, R9-linked caPCNA peptide, alanine at aa129] | 80±7 | – |
| RRRRRRRRRCCLGIPAQEY [A5-sub. peptide, R9-linked caPCNA peptide, alanine at aa130] | 45±14 | – |
| RRRRRRRRRCCLGIPEAEY [A6-sub. peptide, R9-linked caPCNA peptide, alanine at aa131] | 93±7 | – |
| RRRRRRRRRCCLGIPEQAY [A7-sub. peptide, R9-linked caPCNA peptide, alanine at aa132] | 88±4 | – |
| RRRRRRRRRCCLGIPEQEA [A8-sub. peptide, R9-linked caPCNA peptide, alanine at aa133] | 7±6 | – |
